Source: ChEMBL document CHEMBL5223191, “Discovery of a Novel Series of Imidazopyrazine Derivatives as Potent SHP2 Allosteric Inhibitors” (ACS Med Chem Lett, 2023)
Values after ≈ are worked out from the molar mass of the structure shown. One block for each molecule: values may come before it.

Legend:
[1] = target: T1, Tyrosine-protein phosphatase non-receptor type 11 (Homo sapiens, UniProt Q06124); assay: Allosteric inhibition of IRS1 peptide-activated human recombinant SHP2 (Met1 to Leu525) expressed in Escherichia coli assessed as inhibition of dephosphorylation of 6,8-difluoro-4-methylumbelliferyl phosphate using DiFMUP as substrate preincubated with enzyme for 30 mins followed by substrate addition and measured after 30 mins by DiFMUP assay
T1 sequence (Q06124 whole entry): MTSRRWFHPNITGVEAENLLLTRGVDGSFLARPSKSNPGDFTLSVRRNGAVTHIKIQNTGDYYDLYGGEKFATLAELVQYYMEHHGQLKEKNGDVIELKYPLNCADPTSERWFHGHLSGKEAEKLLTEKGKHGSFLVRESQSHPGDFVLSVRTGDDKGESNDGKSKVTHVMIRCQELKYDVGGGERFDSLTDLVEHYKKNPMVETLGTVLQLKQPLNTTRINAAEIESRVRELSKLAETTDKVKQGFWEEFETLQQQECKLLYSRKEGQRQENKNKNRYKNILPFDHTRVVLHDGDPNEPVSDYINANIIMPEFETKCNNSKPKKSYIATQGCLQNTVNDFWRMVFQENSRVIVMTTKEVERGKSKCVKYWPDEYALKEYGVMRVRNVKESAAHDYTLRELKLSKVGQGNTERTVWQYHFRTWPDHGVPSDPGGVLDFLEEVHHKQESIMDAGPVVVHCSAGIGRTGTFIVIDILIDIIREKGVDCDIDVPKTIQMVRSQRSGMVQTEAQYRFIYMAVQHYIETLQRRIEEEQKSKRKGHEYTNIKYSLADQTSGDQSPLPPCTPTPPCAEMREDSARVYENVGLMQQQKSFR

[2] = target: T1, Tyrosine-protein phosphatase non-receptor type 11; assay: Allosteric inhibition of SHP2 in human KYSE-520 cells assessed as inhibition of ERK phosphorylation incubated for 2 hrs by TR-FRET assay; assay type: cell-based, KYSE-520 cell line
[3] = target: Voltage-gated inwardly rectifying potassium channel KCNH2 (Homo sapiens, UniProt Q12809); assay: Displacement of E-4031 from hERG by fluorescence polarization assay; assay type: toxicity
[4] = tested on: KYSE-520 cell line; assay: Antiproliferative activity against EGFR-amplified human KYSE-520 cells assessed as inhibition of cell proliferation incubated for 72 hrs by CellTiter-Glo reagent based luminescence assay; assay type: functional; settings: KYSE-520, 72 h
[5] = Apparent passive permeability of the compound in phosphate buffer saline at pH 7.4 at 5 uM incubated for 4 hrs by PAMPA assay; assay type: ADME
[6] = Intrinsic clearance in Sprague-Dawley rat at 0.5 mg/kg, iv measured for 24 hrs by LC-MS/MS analysis; assay type: ADME, organism-based; settings: in vivo
[7] = Drug metabolism in C57BL/6 mouse liver microsomes assessed as 1'-(6-((2-(trifluoromethyl)pyridin-3-yl)sulfonyl)-1H-imidazo[4,5-b]pyrazin-2-yl)-1,3-dihydrospiro[indene-2,4'-piperidin]-1-amine formation at 1 uM measured after 60 mins in presence of NADPH by MetID study analysis; assay type: ADME, Microsome
[8] = Half life in Sprague-Dawley rat at 0.5 mg/kg, iv measured for 24 hrs by LC-MS/MS analysis; assay type: ADME, organism-based; settings: in vivo
[9] = target: T1, Tyrosine-protein phosphatase non-receptor type 11; assay: Binding affinity to N-terminal biotinylated AviTag-G4SG4S-tagged recombinant SHP2 (1 to 525 residues) (unknown origin) by SPR analysis
[10] = Intrinsic clearance in C57BL/6 mouse liver microsomes at 1 uM measured for 60 mins in presence of NADPH by LC-MS/MS analysis; assay type: ADME, Microsome; settings: read-out: CLH
[11] = Volume of distribution at steady state in Sprague-Dawley rat at 0.5 mg/kg, iv measured for 24 hrs by LC-MS/MS analysis; assay type: ADME, organism-based; settings: in vivo, read-out: Vdss
[12] = Drug metabolism in C57BL/6 mouse liver microsomes assessed as oxidised metabolite formation at 1 uM measured after 60 mins in presence of NADPH by MetID study analysis; assay type: ADME, Microsome; settings: 1 h
[13] = Intrinsic clearance in human liver microsomes at 1 uM measured for 60 mins in presence of NADPH by LC-MS/MS analysis; assay type: ADME, Microsome; settings: read-out: CLH
[14] = Drug metabolism in human liver microsomes assessed as 1'-(6-((2-(trifluoromethyl)pyridin-3-yl)sulfonyl)-1H-imidazo[4,5-b]pyrazin-2-yl)-1,3-dihydrospiro[indene-2,4'-piperidin]-1-amine formation at 1 uM measured after 60 mins in presence of NADPH by MetID study analysis; assay type: ADME, Microsome
[15] = Kinetic solubility of the compound in phosphate buffer saline at pH 7.4 at 200 uM by LC-UV analysis; assay type: physicochemical; settings: read-out: Kinetic_solubility
[16] = Drug metabolism in human liver microsomes assessed as oxidised metabolite formation at 1 uM measured after 60 mins in presence of NADPH by MetID study analysis; assay type: ADME, Microsome; settings: 1 h
[17] = Volume of distribution at steady state in BALB/c mouse at 1 mg/kg, iv measured for 24 hrs by LC-MS/MS analysis; assay type: ADME, organism-based; settings: in vivo, read-out: Vdss
[18] = Oral bioavailability in BALB/c mouse at 50 mg/kg measured for 24 hrs by LC-MS/MS analysis; assay type: ADME, organism-based; settings: in vivo
[19] = Intrinsic clearance in BALB/c mouse at 1 mg/kg, iv measured for 24 hrs by LC-MS/MS analysis; assay type: ADME, organism-based; settings: in vivo
[20] = Half life in BALB/c mouse at 1 mg/kg, iv measured for 24 hrs by LC-MS/MS analysis; assay type: ADME, organism-based; settings: in vivo

Sequence of Voltage-gated inwardly rectifying potassium channel KCNH2 (Q12809 whole entry): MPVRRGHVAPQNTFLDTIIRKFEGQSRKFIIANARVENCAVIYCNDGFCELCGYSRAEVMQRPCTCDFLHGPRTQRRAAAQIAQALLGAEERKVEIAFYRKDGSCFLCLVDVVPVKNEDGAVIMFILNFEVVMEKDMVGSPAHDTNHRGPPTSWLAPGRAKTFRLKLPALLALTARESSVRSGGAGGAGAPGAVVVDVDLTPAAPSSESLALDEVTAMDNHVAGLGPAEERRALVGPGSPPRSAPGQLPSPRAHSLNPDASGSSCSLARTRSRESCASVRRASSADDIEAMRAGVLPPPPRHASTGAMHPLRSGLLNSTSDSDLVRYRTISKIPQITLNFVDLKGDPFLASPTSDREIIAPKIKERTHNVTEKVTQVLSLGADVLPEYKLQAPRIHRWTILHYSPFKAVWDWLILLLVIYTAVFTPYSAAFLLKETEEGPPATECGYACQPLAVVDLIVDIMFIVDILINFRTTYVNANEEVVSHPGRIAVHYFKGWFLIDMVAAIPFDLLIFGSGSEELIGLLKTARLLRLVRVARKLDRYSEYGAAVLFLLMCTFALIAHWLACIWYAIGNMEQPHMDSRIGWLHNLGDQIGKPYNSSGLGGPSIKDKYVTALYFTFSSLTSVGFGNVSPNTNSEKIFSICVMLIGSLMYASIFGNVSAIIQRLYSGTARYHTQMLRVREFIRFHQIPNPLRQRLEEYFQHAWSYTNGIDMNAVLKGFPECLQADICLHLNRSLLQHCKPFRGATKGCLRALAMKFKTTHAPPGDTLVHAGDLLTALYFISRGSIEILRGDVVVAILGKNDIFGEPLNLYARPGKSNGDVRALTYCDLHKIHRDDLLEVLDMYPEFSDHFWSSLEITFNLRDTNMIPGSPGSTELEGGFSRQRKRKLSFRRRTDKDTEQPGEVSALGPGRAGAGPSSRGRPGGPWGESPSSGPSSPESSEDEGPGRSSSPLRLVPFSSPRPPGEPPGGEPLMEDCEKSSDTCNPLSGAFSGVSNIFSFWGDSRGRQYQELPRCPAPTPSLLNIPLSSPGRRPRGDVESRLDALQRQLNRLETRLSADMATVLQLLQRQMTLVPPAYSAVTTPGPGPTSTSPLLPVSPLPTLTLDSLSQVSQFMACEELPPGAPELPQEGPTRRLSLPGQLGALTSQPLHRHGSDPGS

IC50 [1]: 64 nM | EC50 [2]: 2850 nM
SMILES: C[C@@H]1OCC2(CCN(c3nc4nc(Sc5cccnc5C(F)(F)F)cnc4[nH]3)CC2)[C@@H]1N

IC50 [1]: 74 nM | EC50 [2]: 1760 nM
SMILES: CC1(N)CCN(c2nc3ncc(Sc4cccnc4C(F)(F)F)nc3[nH]2)CC1

IC50 [1]: 887 nM
SMILES: CC1(N)CCN(c2nc3nc(Sc4cccnc4C(F)(F)F)cnc3s2)CC1

SMILES: N[C@@H]1c2ccccc2CC12CCN(c1nc3nc(Sc4ccncc4Cl)cnc3[nH]1)CC2
IC50 [3]: 3100 nM | IC50 [1]: 3 nM | EC50 [2]: 51 nM | EC50 [4]: 325 nM

IC50 [1]: 47 nM
SMILES: CC1(N)CCN(c2nc3ncc(Sc4cccc(Cl)c4Cl)nc3[nH]2)CC1

IC50 [1]: 142 nM
SMILES: CC1(N)CCN(c2cnc(Sc3cccnc3C(F)(F)F)c(N)n2)CC1

IC50 [1]: 521 nM
SMILES: CC1(N)CCN(c2nc3ncc(Oc4cccc(Cl)c4Cl)nc3[nH]2)CC1

IC50 [1]: 409 nM
SMILES: Cn1c(N2CCC(C)(N)CC2)nc2nc(Sc3cccnc3C(F)(F)F)cnc21

IC50 [1]: 808 nM
SMILES: CC1(N)CCN(c2nc3cnc(Sc4cccnc4C(F)(F)F)nc3[nH]2)CC1

IC50 [1]: 290 nM
SMILES: N[C@@H]1CCCC12CCN(c1nc3nc(Sc4cccnc4C(F)(F)F)cnc3[nH]1)CC2

IC50 [1]: 1360 nM
SMILES: Cn1c(N2CCC(C)(N)CC2)nc2ncc(Sc3cccnc3C(F)(F)F)nc21

SMILES: N[C@@H]1c2ccccc2CC12CCN(c1nc3nc(Sc4cccnc4C(F)(F)F)cnc3[nH]1)CC2
IC50 [3]: 1800 nM | Papp at 4 h, 5 µM [5]: 0.027 ×10⁻⁶ cm/s | IC50 [1]: 5 nM | CL [6]: 24 mL/min/kg | Drug metabolism [7]: Metabolite_Detected | half-life [8]: 0.4 h | Kd [9]: 0.6 nM | CLint scaled at 1 µM [10]: 297 mL/min/kg | EC50 [2]: 42 nM | Vd [11]: 0.4 L/kg | Drug metabolism [12]: Metabolite_Detected | EC50 [4]: 547 nM | CLint scaled at 1 µM [13]: 74 mL/min/kg | Drug metabolism [14]: Metabolite_Detected | solubility kinetic at 200 µM [15]: 154 µM (≈ 76.6 µg/mL) | Drug metabolism [16]: Metabolite_Detected

IC50 [1]: 664 nM
SMILES: NC1CCN(c2nc3nc(Sc4cccnc4C(F)(F)F)cnc3[nH]2)CC1

IC50 [1]: > 64000 nM
SMILES: CC1(N)CCN(c2nc3ncc(Sc4cccnc4C(F)(F)F)nc3s2)CC1

IC50 [1]: 435 nM
SMILES: NC1CCCN(c2nc3nc(Sc4cccnc4C(F)(F)F)cnc3[nH]2)C1 (stereo unspecified)

IC50 [1]: 436 nM
SMILES: Cc1nc2nc(N3CCC(C)(N)CC3)[nH]c2nc1Sc1cccc(Cl)c1Cl

SMILES: Nc1nccc(Sc2cnc3[nH]c(N4CCC5(CC4)Cc4ccccc4[C@H]5N)nc3n2)c1Cl
IC50 [3]: 900 nM | IC50 [1]: 4 nM | EC50 [2]: 75 nM | EC50 [4]: 598 nM

IC50 [1]: 797 nM
SMILES: CC1(N)CCN(c2nc3ncc(-c4cccc(Cl)c4Cl)nc3[nH]2)CC1

IC50 [1]: > 33000 nM
SMILES: CC1(N)CCN(c2nc3ncc(Sc4cccnc4C(F)(F)F)cc3[nH]2)CC1

IC50 [1]: > 16000 nM
SMILES: CC1(N)CCN(c2nc3ccc(Sc4cccnc4C(F)(F)F)cc3[nH]2)CC1

IC50 [1]: 1180 nM
SMILES: CNC1CCN(c2nc3nc(Sc4cccnc4C(F)(F)F)cnc3[nH]2)CC1

SMILES: CNc1nccc(Sc2cnc3[nH]c(N4CCC5(CC4)Cc4ccccc4[C@H]5N)nc3n2)c1Cl
IC50 [3]: 4200 nM | Vd [17]: 1.8 L/kg | Papp at 4 h, 5 µM [5]: 0.02 ×10⁻⁶ cm/s | IC50 [1]: 6 nM | CL [6]: 17 mL/min/kg | half-life [8]: > 2.3 h | bioavailability [18]: 7% | EC50 [2]: 37 nM | CL [19]: 14 mL/min/kg | Vd [11]: 1.9 L/kg | half-life [20]: > 4 h | EC50 [4]: 520 nM
